Results on three compounds are retold here after BindingDB's records for doi:10.1021/jm970550g (Northwestern University, 1998).

This assay can be described thus: Compound was tested for binding affinity against neuronal nitric oxide synthase(nNOS).
What is called Ki is a measure of affinity in units of concentration, obtained from inhibition or displacement. Higher therefore signals a looser hold on the target. The compound `C=CCNC(=N)NCCCC(N)C(C)=O` (stereo not drawn) [1-Acetyl-4-(N'-allyl-guanidino)-butyl-ammonium] displayed a Ki of 0.2 µM.
In turn, `CCNC(=N)NCCCC(N)C(=O)O` (stereo not drawn) [2-Amino-5-(N'-ethyl-guanidino)-pentanoic acid] yielded a Ki of 16 µM.
Take `C#CCNC(=N)NCCCC(N)C(=O)O` (stereo not drawn) [2-Amino-5-(N'-prop-2-ynyl-guanidino)-pentanoic acid]: the inhibitory constant (Ki) was found to be 0.43 µM.
